Legend:
mouse thymocytes [1] = experiment: Inhibition of IL-1 action: IL-1 stimulated mouse thymocyte proliferation in presence of PHA; assay type: cell-based
Protocol: The ability of tripterinin and tripterifordin to suppress the cell-proliferative effect of IL-1 in mouse thymocytes, an index of IL-1 action (O'Gara), was also examined. In this study, mouse thymocytes in culture were stimulated with IL-1 in the presence of phytohemagglutinin (PHA) and increasing concentrations of purified tripterinin or tripterifordin. The cells were cultured for 72 hours, and during the last four hours, incubated with tritiated thymidine. DNA synthesis was assessed by measurement of radiolabeled thymidine incorporation.
Mouse thymocytes were prepared, and the action of IL-1, which stimulates thymocyte proliferation, was measured using standard techniques (O'Gara). Three to six week old C3H/HeN mice were obtained from Simonsen Laboratories, Gilroy, Calif. and sacrificed by CO2 inhalation. Thymi were removed, separated from adherent non-thymic tissue, homogenized in Hank's balanced salt solution (Gibco) using a glass homogenizer, and centrifuged at 180×g for 10 minutes at 15° C. Following an additional wash in HBSS, the thymocytes were resuspended in RPMI 1640 tissue culture medium (Gibco) containing 50 μM 2-mercaptoethanol (Fisher), 2 mM glutamine (Gibco), 1 mM sodium pyruvate, non-essential amino acids, penicillin (100 U/ml) streptomycin (100 μg/ml), 10% heat inactivated fetal bovine serum and Phytohemagglutinin (PHA, Pharmacia, final concentration 10 μg/ml). Cells were cultured in round-bottom 96 well microtiter tissue culture plates, 6×10^5 cells per well in a volume of 100 μl. Tripterinin or tripterifordin was diluted in tissue culture medium and added to the wells in the presence and absence of IL-1 (recombinant human IL-1, R&D Systems catalog #201-LB, 0.1 ng/ml). Total volume was 150 μl per well.
Plates were incubated for 72 hours (95% air/5% CO2, 37° C.). During the last four hours of incubation, [^3 H]-thymidine (Amersham, […]) was added (0.5 μCi per well). Cells were harvested onto Whatman 934-AH glass microfiber filters and counted in a Beckman LS 6000 scintillation counter. Results were expressed as counts per minute per well.

TNFα = TNFα production by PHA stimulated human PBLs (ELISA); assay type: cell-based; settings: 24 h
Protocol: (§1) The effect of tripterinin on the production of the cytokines IL-1b, IL2, IL-6, IFNγ, and TNFα was assessed by measurement of the concentration of these cytokines in PHA stimulated human PBL cultures. Cytokine levels were measured by standard ELISA methods using commercially available kits, as detailed in Example 6. Briefly, assay buffer was added to each of the wells of a microtiter plate containing pre-bound anti-cytokine antibody, followed by addition of standard or sample solution, diluted appropriately for the cytokine concentration measured, followed by a second reporter-labeled antibody specific against the anti-cytokine antibody. […]
(§2) Cytokine measurements were carried out using commercially available ELISA assay kits (R&D Systems), in accordance with the supplier's protocols. In brief, 100 μl of the assay buffer supplied was added to each of the wells of a microtiter plate containing pre-bound anti-cytokine antibody, followed by 100 μl of standard or sample solution, diluted appropriately for the concentration range measured. […]
(§3) Following two hours incubation, the plates were washed four times with assay buffer, and the second antibody, anti-anti-cytokine-horseradish peroxidase (HRP), was added to each well in a volume of 200 μl. […] Optical density was determined using a Molecular Devices microtiter plate reader.

IL2 = experiment: IL-2 production by PHA stimulated human PBLs (ELISA); assay type: cell-based; settings: 24 h
Protocol: as §1, §2, §3

IL-6 = IL-6 production by PHA stimulated human PBLs (ELISA); assay type: cell-based; settings: 24 h
Protocol: as §1, §2, §3

IFNγ = IFNγ production by PHA stimulated human PBLs (ELISA); assay type: cell-based; settings: 24 h
Protocol: as §1, §2, §3

IL-1b = IL-1b production by PHA stimulated human PBLs (ELISA); assay type: cell-based; settings: 0.7 and 3.13 μg/ml tripterinin, 24 h
Protocol: as §1, §2, §3

human PBLs = experiment: Cytotoxicity, MTT reduction, human PBLs; assay type: cell-based; settings: up to 10 μg/ml, highest tested, 24 h
Protocol: (§4) Potential cytotoxicity of tripterinin was assessed by measurement of the effect of the compound on reduction of MTT (3-[4,5-Dimethylthiazol-2-yl]-2,5-diphenyltetrazolium bromide) by cultured cells, an index of cellular respiration and a sensitive assay for the detection of cytotoxicity (Green, et al.). Toxicity was evaluated in vitro in human PBLs and in mouse thymocytes, as detailed in Example 7. Sodium azide was used as a cytotoxic control. Cytotoxicity was also assessed using the standard method of trypan blue dye staining.
(§5) Potential cytotoxicity of tripterinin was assessed by measurement of the compound's effect on the reduction of MTT (3-[4,5-Dimethylthiazol-2-yl]-2,5-diphenyltetrazolium bromide) by cultured cells. MTT, a yellow-colored compound, is reduced by mitochondrial enzymes to form a purple crystalline reduction product (formazan), providing an index of cellular respiration as well as a sensitive assay for cytotoxicity (Green, et al.).
(§6) Cytotoxicity was assessed in cultured human PBLs and mouse thymocytes. […] (to solubilize the formazan crystals, the MTT reduction product), optical density was determined at 570-650 nm in a Molecular Devices microtiter plate reader. Data are expressed as the ratio of the optical density of the tripterinin treated sample to that of untreated controls. […]

mouse thymocytes [2] = experiment: Cytotoxicity, MTT reduction, mouse thymocytes; assay type: cell-based; settings: up to 10 μg/ml, highest tested, 24 h
Protocol: as §4, §5, §6

[3] = Solubility of crystalline tripterinin in organic solvents; assay type: physicochemical; settings: methylene chloride or acetone

C[C@]12CCC[C@]3(COC1=O)[C@@H]2CC[C@@]12C[C@@H](CC[C@]13O)[C@](C)(O)C2 [tripterinin]
concentration at which IL-1 stimulated cell proliferation was inhibited (mouse thymocytes [1]; mouse thymocytes, IL-1 with PHA, FIG. 10): about 0.2 μg/ml | inhibition of IL-1 stimulated thymocyte proliferation (mouse thymocytes [1]; tripterifordin 3.13 μg/ml, about 3 μg/ml, tripterinin 0.02 to 1 μg/ml): dose dependent inhibition | decrease in TNFα production (TNFα; 0.7 μg/ml tripterinin): 93% | decrease in TNFα production (TNFα; 3.13 μg/ml tripterinin): 98% | decrease in IL2 production (IL2; 0.7 μg/ml tripterinin): 96% | decrease in IL2 production (IL2; 3.13 μg/ml tripterinin): 96% | decrease in IL-6 production (IL-6; 0.7 μg/ml tripterinin): 83% | decrease in IL-6 production (IL-6; 3.13 μg/ml tripterinin): 99% | decrease in IFNγ production (IFNγ; 0.7 μg/ml tripterinin): 84% | decrease in IFNγ production (IFNγ; 3.13 μg/ml tripterinin): 80% | effect on IL-1B production (IL-1b): did not significantly affect | cytotoxicity (MTT reduction) (human PBLs): No significant toxicity | cytotoxicity (MTT reduction) (human PBLs; listed as Tripterinin): no significant toxicity | cytotoxicity (MTT reduction) (mouse thymocytes [2]): No significant toxicity | cytotoxicity (MTT reduction) (mouse thymocytes [2]; listed as Tripterinin): no significant toxicity | dissolution of crystalline compound [3]: dissolved easily

— patent publication US5468772A, “Tripterinin compound and method” (Pharmagenesis, Inc., priority 1993, dated 1995)
